These results are taken from ChEMBL document CHEMBL1781900, “Synthesis and peptide incorporation of an unnatural amino acid containing activity-based probe for protein tyrosine phosphatases” (Bioorg Med Chem Lett, 2009).

Positions count from the first letter of the chain named. The source made the active and inactive calls. No cut-off for these calls is given here.

Assay [1] relates to Escherichia coli. The assay can be described thus: Binding affinity to PTP1B in Escherichia coli lysate at 0.8 mM after 1 hr by Western blotting analysis. (In general: In western blotting, separated proteins are transferred to a membrane and probed.)
Assay [2] has as its target T1, Tyrosine-protein phosphatase non-receptor type 1 (Homo sapiens) (UniProt P18031).
T1 sequence (whole entry): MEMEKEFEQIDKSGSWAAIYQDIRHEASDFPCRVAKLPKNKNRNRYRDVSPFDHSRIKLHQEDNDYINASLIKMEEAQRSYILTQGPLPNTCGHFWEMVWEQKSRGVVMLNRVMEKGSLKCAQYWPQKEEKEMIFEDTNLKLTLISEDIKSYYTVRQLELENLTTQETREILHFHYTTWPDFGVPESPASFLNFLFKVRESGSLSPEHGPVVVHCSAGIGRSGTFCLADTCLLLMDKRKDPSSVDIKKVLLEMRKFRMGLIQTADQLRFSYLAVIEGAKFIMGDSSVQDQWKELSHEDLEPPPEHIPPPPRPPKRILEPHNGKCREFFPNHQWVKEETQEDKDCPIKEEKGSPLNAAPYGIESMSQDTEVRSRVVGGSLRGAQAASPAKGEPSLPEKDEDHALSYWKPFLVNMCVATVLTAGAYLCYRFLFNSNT
The assay can be described thus: Binding affinity to purified recombinant PTP1B using streptaive HRP at 20 uM after 1 hr by Western blotting analysis.

The subject of assay [3] is Escherichia coli. The assay can be described thus: Binding affinity to PTP4A3 in Escherichia coli lysate at 0.8 mM after 1 hr by Western blotting analysis in presence of alpha-bromobenzylphosphonate.
The target in assay [4] is T1, Tyrosine-protein phosphatase non-receptor type 1 (Homo sapiens). The assay can be described thus: Binding affinity to purified recombinant PTP1B using streptaive HRP at 200 uM after 1 hr by Western blotting analysis.
The target in assay [5] is Protein tyrosine phosphatase type IVA 3 (Homo sapiens) (UniProt O75365). The assay can be described thus: Binding affinity to purified recombinant PTP4A3 using streptaive HRP at 200 uM by Western blotting analysis.
The target is the same in assay [6]. The assay can be described thus: Binding affinity to purified recombinant PTP4A3 using streptaive HRP at 20 uM after 1 hr by Western blotting analysis.
The test system of assay [7] is T2, Tyrosine-protein phosphatase non-receptor type 1 (Homo sapiens), P18031 [C215S].
T2 sequence (whole entry): T1 sequence (whole entry) with C215S
The assay can be described thus: Binding affinity to purified recombinant dPTP1B C215S mutant using streptaive HRP at 200 uM after 1 hr by Western blotting analysis.

A further assay deals with Jurkat. The assay can be described thus: Binding affinity to PTP1B in human Jurkat cell lysate at 0.8 mM after 1 hr by Western blotting analysis in presence of alpha-bromobenzylphosphonate. The format is cell-free.

Sequence of Protein tyrosine phosphatase type IVA 3 (Homo sapiens) (O75365 whole entry): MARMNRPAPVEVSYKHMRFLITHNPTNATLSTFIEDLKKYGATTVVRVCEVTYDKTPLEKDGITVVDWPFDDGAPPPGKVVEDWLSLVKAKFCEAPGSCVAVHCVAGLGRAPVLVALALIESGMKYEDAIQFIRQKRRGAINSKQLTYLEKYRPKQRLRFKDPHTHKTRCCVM

As for `NC(=O)[C@H](Cc1ccc(OP(=O)(O)O)c(C(F)F)c1)NC(=O)[C@H](CC(=O)O)NC(=O)Cc1ccc(C(F)(F)P(=O)(O)O)cc1`, the outcome (with Escherichia coli [1]; in assay [2]; in the assay on Escherichia coli [3]; in assay [4]; in assay [5]; in the assay with Jurkat) was Active. The outcome in assay [6] and in assay [7] was inactive.
